From the supplement of paper PMC10307832

Columns and labels:
Test in all cases: relative viability (nuclei count vs DMSO), 5 days (fraction); higher = more cells survive
[1] = compound: Cc1ccc(C(=O)N(CCCN)[C@@H](c2nc3cc(Cl)ccc3c(=O)n2Cc2ccccc2)C(C)C)cc1 [Ispinesib] + Nc1nc2[nH]cc(CCc3ccc(C(=O)N[C@@H](CCC(=O)O)C(=O)O)cc3)c2c(=O)[nH]1 [Pemetrexed] (partner 0.2 µM)
Method in brief: (§1)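 Each reported value is a median over duplicate plates. It expresses relative viability: treated-well nuclei count divided by vehicle-well nuclei count. Lung cancer cell lines in 1536-well plates were dosed by pin tool a day after seeding, alone with one drug or with a fixed anchor-drug dose plus five library-drug doses (not always all listed) in √10 steps, and nuclei were counted after 5 days.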

[2] = compound: C[C@]1(O)C[C@@H](c2nc(-c3ccc4ccc(-c5ccccc5)nc4c3)c3c(N)nccn32)C1 [Linsitinib] + CC(=O)Nc1cccc(-n2c(=O)n(C3CC3)c(=O)c3c(Nc4ccc(I)cc4F)n(C)c(=O)c(C)c32)c1 [Trametinib] (partner 0.02 µM)
Method in brief: as §1

[3] = compound: Cc1ccc(C(=O)N(CCCN)[C@@H](c2nc3cc(Cl)ccc3c(=O)n2Cc2ccccc2)C(C)C)cc1 [Ispinesib] + CC(=O)Nc1cccc(-n2c(=O)n(C3CC3)c(=O)c3c(Nc4ccc(I)cc4F)n(C)c(=O)c(C)c32)c1 [Trametinib] (partner 0.02 µM)
Method in brief: as §1

[4] = compound: Cc1ccc(C(=O)N(CCCN)[C@@H](c2nc3cc(Cl)ccc3c(=O)n2Cc2ccccc2)C(C)C)cc1 [Ispinesib] + C[C@@H](Oc1cc(-c2cnn(C3CCNCC3)c2)cnc1N)c1c(Cl)ccc(F)c1Cl [Crizotinib] (partner 1 µM)
Method in brief: as §1

Work on UMC-11 yielded a relative viability ([1]; first compound 0.001 µM) of 0.844, a relative viability ([1]; first compound 0.003162 µM) of 0.829 and a relative viability ([1]; first compound 0.01 µM) of 0.868. It also gave a relative viability ([1]; first compound 0.03162 µM) of 0.451, a relative viability ([1]; first compound 0.1 µM) of 0.235 and a relative viability ([2]; first compound 0.01 µM) of 0.72. It also gave a relative viability ([2]; first compound 0.03162 µM) of 0.76, a relative viability ([2]; first compound 0.1 µM) of 0.7 and a relative viability ([2]; first compound 0.3162 µM) of 0.211. The relative viability ([2]; first compound 1 µM) was 0.471, the relative viability ([3]; first compound 0.001 µM) was 0.685 and the relative viability ([3]; first compound 0.003162 µM) was 0.701. It also gave a relative viability ([3]; first compound 0.01 µM) of 0.495, a relative viability ([3]; first compound 0.03162 µM) of 0.238 and a relative viability ([3]; first compound 0.1 µM) of 0.309. The relative viability ([4]; first compound 0.001 µM) was 0.547, the relative viability ([4]; first compound 0.003162 µM) was 0.636 and the relative viability ([4]; first compound 0.01 µM) was 0.394. It also gave a relative viability ([4]; first compound 0.03162 µM) of 0.192 and a relative viability ([4]; first compound 0.1 µM) of 0.376.
